For assay [1], the target named is human orexin-1 receptor (Homo sapiens (Human), UniProt O43613). As to the kind of experiment: In vitro assay: intracellular calcium measurements (FLIPR), antagonistic activity. The class given is cell-based. The note with it: CHO cells, 3 nM orexin-A, compound incubation 120 min; marked values are geometric means of n = 2-6; read-out: IC50 OX1. Background: A change in cytosolic calcium serves as a functional read-out for many receptors and channels.

In assay [2] the target is human orexin-2 receptor (Homo sapiens (Human), UniProt O43614). The description is as above. The class given is cell-based. The settings on record: CHO cells, 3 nM orexin-A, compound incubation 120 min; marked values are geometric means of n = 2-6; read-out: IC50 OX2.
Sequence of human orexin-2 receptor (O43614 whole entry): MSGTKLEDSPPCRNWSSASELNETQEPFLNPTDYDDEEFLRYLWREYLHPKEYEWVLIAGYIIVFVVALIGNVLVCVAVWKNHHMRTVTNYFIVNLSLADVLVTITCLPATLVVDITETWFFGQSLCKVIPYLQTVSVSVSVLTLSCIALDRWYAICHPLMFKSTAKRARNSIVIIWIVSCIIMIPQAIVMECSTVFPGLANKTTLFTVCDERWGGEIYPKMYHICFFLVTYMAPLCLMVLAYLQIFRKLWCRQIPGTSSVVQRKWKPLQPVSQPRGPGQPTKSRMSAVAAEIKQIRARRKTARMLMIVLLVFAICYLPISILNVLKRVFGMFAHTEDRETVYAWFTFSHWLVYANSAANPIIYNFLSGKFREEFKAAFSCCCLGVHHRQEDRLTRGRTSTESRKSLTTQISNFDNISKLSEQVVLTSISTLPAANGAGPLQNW

Sequence of human orexin-1 receptor (O43613 whole entry): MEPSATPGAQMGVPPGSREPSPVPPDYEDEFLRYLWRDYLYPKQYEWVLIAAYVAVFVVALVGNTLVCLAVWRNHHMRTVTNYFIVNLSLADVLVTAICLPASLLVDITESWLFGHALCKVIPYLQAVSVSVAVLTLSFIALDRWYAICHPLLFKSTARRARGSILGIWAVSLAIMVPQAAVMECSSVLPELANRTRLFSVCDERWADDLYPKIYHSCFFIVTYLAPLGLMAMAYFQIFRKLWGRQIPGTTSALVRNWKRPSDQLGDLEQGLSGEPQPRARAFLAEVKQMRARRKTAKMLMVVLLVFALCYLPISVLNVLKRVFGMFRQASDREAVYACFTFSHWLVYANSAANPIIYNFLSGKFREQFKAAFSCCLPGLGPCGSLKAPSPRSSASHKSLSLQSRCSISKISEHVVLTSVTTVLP

For `COc1cccc(F)c1C1CC(F)(F)C(=O)N1Cc1ccc2oc3ccccc3c2c1` (stereo not drawn) [Example 410, 1-(dibenzo[b,d]furan-2-ylmethyl)-3,3-difluoro-5-(2-fluoro-6-methoxyphenyl)pyrrolidin-2-one], the half-inhibitory concentration (IC50) in assay [1] is 143 nM; in assay [2] it was 12 nM.
Taken in the same sequence, the figures for `CC(C)Oc1cccc(F)c1C1CC(F)(F)C(=O)N1Cc1ccc(OC(F)(F)F)cc1` (stereo not drawn) [Example 411, 3,3-difluoro-5-(2-fluoro-6-isopropoxyphenyl)-1-(4-(trifluoromethoxy)benzyl)pyrrolidin-2-one] were 1490 nM and 98 nM.
With `CC(C)Oc1cccc(F)c1C1CC(C)C(=O)N1Cc1ccc(OC(F)(F)F)cc1` (stereo not drawn) [Example 413, 5-(2-fluoro-6-isopropoxyphenyl)-3-methyl-1-(4-(trifluoromethoxy)benzyl)pyrrolidin-2-one], the IC50 in assay [1] was 1500 nM; in assay [2], 68 nM.
In the case of `CC1CC(c2c(F)cccc2OCCF)N(Cc2ccc(OC(F)(F)F)cc2)C1=O` (stereo not drawn) [Example 414, 5-(2-fluoro-6-(2-fluoroethoxy)phenyl)-3-methyl-1-(4-(trifluoromethoxy)benzyl)pyrrolidin-2-one], the IC50 in assay [1] turned out to be 1500 nM; in assay [2] it was 44 nM.
Taken in the same sequence, the figures for `CC1CC(c2c(F)cccc2OCCO)N(Cc2ccc(OC(F)(F)F)cc2)C1=O` (stereo not drawn) [Example 416, 5-(2-fluoro-6-(2-hydroxyethoxy)phenyl)-3-meetthyl-1-(4-(trifluoromethoxy)benzyl)pyrrolidin-2-one] were 2940 nM and 59 nM.
Taken in the same sequence, the figures for `COc1cccc(OC)c1C1CC(C)C(=O)N1Cc1cccc(OCC(F)(F)F)c1` (stereo not drawn) [Example 417, 5-(2,6-dimethoxyphenyl)-3-methyl-1-(3-(2,2,2-trifluoroethoxy)benzyl)pyrrolidin-2-one] were 123 nM and 110 nM.
Consider `COc1cccc(OC)c1C1CC(C)C(=O)N1Cc1ccc(OCC(F)(F)F)cc1` (stereo not drawn) [Example 418, 5-(2,6-dimethoxyphenyl)-3-methyl-1-(4-(2,2,2-trifluoroethoxy)benzyl)pyrrolidin-2-one], for which the half-maximal inhibitory concentration (IC50) amounted to 430 nM in assay [1] and 323 nM in assay [2].
Taken in the same sequence, the figures for `COc1cccc(OC)c1C1CC(C)C(=O)N1Cc1cccc(OCC(F)F)c1` (stereo not drawn) [Example 419, 1-(3-(2,2-difluoroethoxy)benzyl)-5-(2,6-dimethoxyphenyl)-3-methylpyrrolidin-2-one] were 143 nM and 173 nM.
Taken in the same sequence, the figures for `COc1cccc(OC)c1C1CC(C)C(=O)N1Cc1ccc(OCC(F)F)cc1` (stereo not drawn) [Example 420, 1-(4-(2,2-difluoroethoxy)benzyl)-5-(2,6-dimethoxyphenyl)-3-methylpyrrolidin-2-one] were 586 nM and 549 nM.
Regarding `COc1cccc(OC)c1C1CC(C)C(=O)N1Cc1cccc(OCCF)c1` (stereo not drawn) [Example 421, 5-(2,6-dimethoxyphenyl)-1-(3-(2-fluoroethoxy)benzyl)-3-methylpyrrolidin-2-one], the half-inhibitory concentration (IC50) in assay [1] turned out to be 498 nM; in assay [2], 237 nM.
In the same order, the values of `COc1cccc(OC)c1C1CC(C)C(=O)N1Cc1ccc(OCCF)cc1` (stereo not drawn) [Example 422, 5-(2,6-dimethoxyphenyl)-1-(4-(2-fluoroethoxy)benzyl)-3-methylpyrrolidin-2-one] are 863 nM and 1040 nM.
Taken in the same sequence, the figures for `COc1cccc(OC)c1C1CC(C)C(=O)N1Cc1cccc(OC(C)C)c1` (stereo not drawn) [Example 423, 5-(2,6-dimethoxyphenyl)-1-(3-isopropoxybenzyl)-3-methylpyrrolidin-2-one] were 101 nM and 93 nM.
In the same order, the values of `COc1cccc(OC)c1C1CC(C)C(=O)N1Cc1cccc(OC(F)(F)C(F)F)c1` (stereo not drawn) [Example 424, 5-(2,6-dimethoxyphenyl)-3-methyl-1-(3-(1,1,2,2-tetrafluoroethoxy)benzyl)pyrrolidin-2-one] are 27 nM and 13 nM.
On to `COc1cc(CN2C(=O)C(C)CC2c2c(OC)cccc2OC)ccc1OC(F)F` (stereo not drawn) [Example 425, 1-(4-(difluoromethoxy)-3-methoxybenzyl)-5-(2,6-dimethoxyphenyl)-3-methylpyrrolidin-2-one], for which the half-maximal inhibitory concentration (IC50) in assay [1] amounted to 311 nM; in assay [2] it was 235 nM.
For the compound `COc1cccc(OC)c1C1CC(C)C(=O)N1Cc1ccc2sc3ccccc3c2c1` (stereo not drawn) [Example 426, 1-(dibenzo[b,d]thiophen-2-ylmethyl)-5-(2,6-dimethoxyphenyl)-3-methylpyrrolidin-2-one], the figures for the IC50 in assay [1] and in assay [2] were 6 nM and 8 nM, respectively.
In the case of `COc1ccc2nc(C)oc2c1C1CCCC(=O)N1Cc1cccc(-c2ccccc2)c1` (stereo not drawn) [Example 440, 1-([1,1′-biphenyl]-3-ylmethyl)-6-(6-methoxy-2-methylbenzo[d]oxazol-7-yl)piperidin-2-one], the half-inhibitory concentration (IC50) turned out to be 46 nM in assay [1] and 91 nM in assay [2].
Taken in the same sequence, the figures for `COc1ccc2nc(C)oc2c1C1CCCC(=O)N1Cc1cccc(-c2csc(C)n2)c1` (stereo not drawn) [Example 441, 6-(6-methoxy-2-methylbenzo[d]oxazol-7-yl)-1-(3-(2-methylthiazol-4-yl)benzyl)piperidin-2-one] were 16 nM and 62 nM.
In the same order, the values of `CCc1nc2ccc(OC)c(C3CCCC(=O)N3Cc3cccc(-c4csc(C)n4)c3)c2o1` (stereo not drawn) [Example 442, 6-(2-ethyl-6-methoxybenzo[d]oxazol-7-yl)-1-(3-(2-methylthiazol-4-yl)benzyl)piperidin-2-one] are 10 nM and 33 nM.
As for `COc1ccc2c(c1C1CCCC(=O)N1Cc1cccc(-c3csc(C)n3)c1)OCCO2` (stereo not drawn) [Example 443, 6-(6-methoxy-2,3-dihydrobenzo[b][1,4]dioxin-5-yl)-1-(3-(2-methylthiazol-4-yl)benzyl)piperidin-2-one], the IC50 in assay [1] turned out to be 5 nM; in assay [2] it was 13 nM.
In the same order, the values of `COc1ccc2c(c1C1CCCC(=O)N1Cc1cccc(-c3ncc(C)s3)c1)OCCO2` (stereo not drawn) [Example 444, 6-(6-methoxy-2,3-dihydrobenzo[b][1,4]dioxin-5-yl)-1-(3-(5-methylthiazol-2-yl)benzyl)piperidin-2-one] are 7 nM and 8 nM.
Taken in the same sequence, the figures for `COc1ccc2ccccc2c1C1CCCC(=O)N1Cc1cccc(-c2ncccn2)c1` (stereo not drawn) [Example 445, 6-(2-methoxynaphthalen-1-yl)-1-(3-(pyrimidin-2-yl)benzyl)piperidin-2-one] were 21 nM and 90 nM.
For `COc1ccc2ccccc2c1C1CCCC(=O)N1Cc1cccc(-c2ncc(C)s2)c1` (stereo not drawn) [Example 446, 6-(2-methoxynaphthalen-1-yl)-1-(3-(5-methylthiazol-2-yl)benzyl)piperidin-2-one], the half-inhibitory concentration (IC50) in assay [1] turned out to be 12 nM; in assay [2], 59 nM.
For the compound `COc1ccc2ccccc2c1C1CCCC(=O)N1Cc1cccc(Oc2ccccc2)c1` (stereo not drawn) [Example 447, 6-(2-methoxynaphthalen-1-yl)-1-(3-phenoxybenzyl)piperidin-2-one], the half-inhibitory concentration (IC50) in assay [1] worked out at 112 nM; in assay [2] it was 92 nM.
As for `COc1ccc2c(c1C1CCCC(=O)N1Cc1cccc(-c3csc(C)n3)c1)OCO2` (stereo not drawn) [Example 448, 6-(5-methoxybenzo[d][1,3]dioxol-4-yl)-1-(3-(2-methylthiazol-4-yl)benzyl)piperidin-2-one], the half-maximal inhibitory concentration (IC50) was found to be 17 nM in assay [1] and 11 nM in assay [2].
In the same order, the values of `COc1ccc2c(c1C1CCCC(=O)N1Cc1ccc(OC(F)(F)F)cc1)OCO2` (stereo not drawn) [Example 449, 6-(5-methoxybenzo[d][1,3]dioxol-4-yl)-1-(4-(trifluoromethoxy)benzyl)piperidin-2-one] are 351 nM and 23 nM.
In the same order, the values of `O=C1CCCCC(c2ccccc2-c2ccncc2)N1Cc1cccc(-c2nccs2)c1` (stereo not drawn) [Example 450, 7-(2-(pyridin-4-yl)phenyl)-1-(3-(thiazol-2-yl)benzyl)azepan-2-one] are 561 nM and 15 nM.
As for `O=C1CCCCC(c2ccccc2-c2cncs2)N1Cc1cccc(-c2nccs2)c1` (stereo not drawn) [Example 451, 1-(3-(thiazol-2-yl)benzyl)-7-(2-(thiazol-5-yl)phenyl)azepan-2-one], the concentration for half-maximal inhibition (IC50) worked out at 427 nM in assay [1] and 19 nM in assay [2].
For the compound `O=C1CCCCC(c2ccccc2-c2cscn2)N1Cc1cccc(-c2nccs2)c1` (stereo not drawn) [Example 452, 1-(3-(thiazol-2-yl)benzyl)-7-(2-(thiazol-4-yl)phenyl)azepan-2-one], the results for the IC50 in assay [1] and in assay [2] were 105 nM and 15 nM, respectively.
As for `O=C1CCCCC(c2ccccc2-c2cccnc2)N1Cc1cccc(-c2nccs2)c1` (stereo not drawn) [Example 453, 7-(2-(pyridin-3-yl)phenyl)-1-(3-(thiazol-2-yl)benzyl)azepan-2-one], the IC50 in assay [1] amounted to 381 nM; in assay [2] it was 93 nM.
Take `O=C1CCCCC(c2ccccc2-c2ccccc2)N1Cc1cccc(-c2nccs2)c1` (stereo not drawn) [Example 454, 7-([1,1′-biphenyl]-2-yl)-1-(3-(thiazol-2-yl)benzyl)azepan-2-one]: the results for the half-maximal inhibitory concentration (IC50) in assay [1] and in assay [2] were 182 nM and 77 nM, respectively.
For the compound `COc1ccc2ncoc2c1C1CCCC(=O)N1Cc1cccc(-c2csc(C)n2)c1` (stereo not drawn) [Example 455, 6-(6-methoxybenzo[d]oxazol-7-yl)-1-(3-(2-methylthiazol-4-yl)benzyl)piperidin-2-one], the half-maximal inhibitory concentration (IC50) in assay [1] amounted to 57 nM; in assay [2] it was 102 nM.
With `O=C1CCCC(c2ccnn2-c2ccccc2)N1Cc1cccc(-c2ccccc2)c1` (stereo not drawn) [Example 456, 1-([1,1′-biphenyl]-3-ylmethyl)-6-(1-phenyl-1H-pyrazol-5-yl)piperidin-2-one], the figures for the concentration for half-maximal inhibition (IC50) in assay [1] and in assay [2] were 654 nM and 716 nM, respectively.
In the same order, the values of `COc1ccc2c(c1C1CCCC(=O)N1Cc1cccc(-c3ccccc3)c1)OCO2` (stereo not drawn) [Example 457, 1-([1,1′-biphenyl]-3-ylmethyl)-6-(5-methoxybenzo[d][1,3]dioxol-4-yl)piperidin-2-one] are 59 nM and 30 nM.

One may read the IC50 as the concentration that inhibits the measured activity by half.

These data come from US9242970B2 (ACTELION PHARMACEUTICALS LTD., priority 2010, dated 2016).
